Values after ≈ are worked out from the molar mass of the structure shown.
How the values were obtained:
Apis mellifera = settings: acute, duration: 48 hours, mortality
Canidae = settings: oral, Dog Other, body weight
Colinus virginianus = settings: acute; oral; mortality
Daphnia magna = settings: chronic/long-term; duration: 21 days; reproduction
Hypoaspis aculeifer = settings: chronic/long-term; duration: 14 days; reproduction
Lepomis macrochirus = settings: acute; duration: 96 hours; mortality
Mus musculus = settings: acute; oral; mortality
Oncorhynchus mykiss = settings: chronic/long-term; duration: 87 days; growth
Tagia sp. = settings: chronic/long-term; reproduction
Typhlodromus pyri = experiment: LR50; higher = less toxic; settings: not reported; mortality

## COc1ccc(-c2ccccc2)cc1NNC(=O)OC(C)C [Bifenazate]
Anas platyrhynchos; reproductive, duration: 23 weeks, F
  NOEL: 2.3 mg/kg-day
Anas platyrhynchos; short-term, oral, feed, mortality
  LD50: 106 mg/kg-day
Apis mellifera; dermal
  LD50: 8.5 µg/piece
Apis mellifera; oral, unspecified
  LD50: > 100 µg/piece
Canidae; chronic, duration: 1 years
  NOAEL: 1 mg/kg-day
Canidae; subchronic, duration: 90 days
  NOAEL: 1 mg/kg-day
Colinus virginianus
  LD50: 1040 mg/kg-day
Daphnia magna
  NOEC: 0.15 mg/L
Hypoaspis aculeifer
  NOEC: 6.56 mg/kg
Lepomis macrochirus
  LC50: 0.58 µg/mL (≈ 1.93 µM)
Mus musculus
  LD50: > 5000 mg/kg-day
Oncorhynchus mykiss
  NOEC: 0.017 mg/L
Rattus norvegicus; acute, oral, mortality
  LD50: > 5000 mg/kg-day
Rattus norvegicus; chronic, duration: 2 years, hematological
  NOAEL: 1 mg/kg-day
Rattus norvegicus; reproduction developmental, body weight
  NOAEL: 10 mg/kg-day
Rattus norvegicus; reproduction developmental, food consumption
  NOAEL: 1.5 mg/kg-day
Tagia sp.
  NOEC: 9.75 mg/kg
Typhlodromus pyri
  LR50: 23.8 g/ha

From EPA's ToxValDB 9.5 (doi:10.2903/j.efsa.2017.4693)
